Laboratory results taken from US20220281825A1 (priority 2016, published 2022).

Key:
[1] = test system: LASV-p; assay: organism not typed; format: cell-based, Lassa (LASV); conditions: Vero, 24 h, read-out: LASV-p EC50 (nM)
[2] = test system: MACV-p; assay: organism not typed; format: cell-based, Machupo (MACV); conditions: Vero, 24 h, read-out: MACV-p EC50 (nM)
[3] = test system: JUNV-p; assay: organism not typed; format: cell-based, Junin (JUNV); conditions: Vero, 24 h, read-out: JUNV-p EC50 (nM)
[4] = test system: TCRV-p; assay: organism not typed; format: cell-based; conditions: Vero, 24 h, read-out: TCRV-p EC50 (nM)
[5] = test system: VSV-p; assay: microbe, parasite or virus in culture; format: cell-based; conditions: Vesicular stomatitis virus, Vero, 24 h, read-out: VSV-p EC50 (nM)
[6] = in vitro; conditions: African green monkey
[7] = test system: GTOV-p; assay: organism not typed; format: cell-based, Guanarito (GTOV); conditions: Vero, 24 h, read-out: GTOV-p EC50 (nM)

SMILES	EC50 [1]	EC50 [2]	EC50 [3]	EC50 [4]	EC50 [5]	CC50 [6]	EC50 [7]
COc1ccc(-n2cnc3ccc(-c4ccc(N(C)C)cc4)cc32)cc1 [Example A7, 4-[1-(4-methoxyphenyl)-1H-1,3-benzodiazol-6-yl]-N,N-dimethylaniline]	8.9 nM	17 nM	1.8 nM	> 25 nM	980 nM	3.96 µM	–
COc1ccc(-n2cnc3ccc(-c4ccc(C(C)(C)O)cc4)cc32)cc1 [Example A8, 2-{4-[1-(4-methoxyphenyl)-1H-1,3-benzodiazol-6-yl]phenyl}propan-2-ol]	6.4 nM	22.3 nM	3.98 nM	21.7 nM	> 1000 nM	9.54 µM	–
COc1ccc(-n2cnc3ccc(-c4ccc5[nH]ccc5c4)cc32)cc1 [Example A12, 6-(1H-indol-5-yl)-1-(4-methoxyphenyl)-1H-1,3-benzodiazole]	0.81 nM	> 25 nM	19.3 nM	21.4 nM	800 nM	0.2 µM	–
COc1ccc(-n2cnc3ccc(-c4ccc(N5CCOCC5)cc4)cc32)cc1 [Example A16, 1-(4-methoxyphenyl)-6-[4-(morpholin-4-yl)phenyl]-1H-1,3-benzodiazole]	17.2 nM	> 25 nM	15.3 nM	> 25 nM	> 1000 nM	> 100 µM	–
CC(=O)c1ccc(-c2ccc3ncn(-c4ccc(OC(C)C)cc4)c3c2)cc1 [Example A26, 1-(4-{1-[4-(propan-2-yloxy)phenyl]-1H-1,3-benzodiazol-6-yl}phenyl)ethan-1-one]	0.59 nM	0.7 nM	0.81 nM	1.45 nM	–	7.52 µM	0.73 nM
CC(C)Oc1ccc(-c2cnc3ccc(-c4ccc5c(ccn5C)c4)cn23)cc1 [Example C22, 1-methyl-5-{3-[4-(propan-2-yloxy)phenyl]imidazo[1,2-a]pyridin-6-yl}-1H-indole]	2.33 nM	0.335 nM	0.415 nM	4.94 nM	–	24.4 µM	0.45 nM
CC(C)Oc1ccc(-c2ccc3ncc(-c4ccc(C(C)(C)O)cc4)n3c2)cc1 [Example C38, 2-(4-{6-[4-(propan-2-yloxy)phenyl]imidazo[1,2-a]pyridin-3-yl}phenyl)propan-2-ol]	0.84 nM	–	–	1.77 nM	–	–	0.2 nM
CC(C)Oc1ccc(-c2cnc3ncc(-c4ccc5[nH]ccc5c4)n3c2)cc1 [Example D16, 5-{6-[4-(propan-2-yloxy)phenyl]imidazo[1,2-a]pyrimidin-3-yl}-1H-indole]	5.37 nM	19.1 nM	1.05 nM	19.9 nM	–	7.53 µM	3.52 nM
CC(C)Oc1ccc(-c2ccc3noc(-c4ccc(OC(C)C)cc4)c3c2)cc1 [Example D18, 3,5-bis[4-(propan-2-yloxy)phenyl]-2,1-benzoxazole]	> 25 nM	> 25 nM	5.58 nM	> 25 nM	–	> 100 µM	–
CC(C)Oc1ccc(-c2ccn3cnc(-c4ccc(OC(C)C)cc4)c3c2)cc1 [Example D19, 1,7-bis[4-(propan-2-yloxy)phenyl]imidazo[1,5-a]pyridine]	> 25 nM	> 25 nM	> 25 nM	> 25 nM	–	7.54 µM	–
CC(C)Oc1ccc(-c2ccc3nc(C(N)=O)c(-c4ccc(OC(C)C)cc4)n3c2)cc1 [Example D22, 3,6-bis[4-(propan-2-yloxy)phenyl]imidazo[1,2-a]pyridine-2-carboxamide]	> 25 nM	> 25 nM	> 25 nM	> 25 nM	–	49.5 µM	–
CC(C)Oc1ccc(-c2ccc3nc(C#N)c(-c4ccc(OC(C)C)cc4)n3c2)cc1 [Example D23, 3,6-bis[4-(propan-2-yloxy)phenyl]imidazo[1,2-a]pyridine-2-carbonitrile]	27.4 nM	> 25 nM	3.78 nM	> 25 nM	–	> 100 µM	–
